Results from ChEMBL document CHEMBL5126668, “The Invention of WM382, a Highly Potent PMIX/X Dual Inhibitor toward the Treatment of Malaria” (ACS Med Chem Lett, 2022).
In brackets after ≈: the same amount, converted by molar mass.

Key:
Plasmodium falciparum [1] = test: Antimalarial activity against asexual blood stage Plasmodium falciparum infected in RBC measured after 72 hrs by LDH release assay; type: functional, organism-based; settings: Erythrocyte
Plasmepsin X = Plasmepsin X (Plasmodium falciparum (isolate 3D7), UniProt Q8IAS0); test: Inhibition of Plasmodium falciparum 3D7 HA-glms-tagged PMX using DABCYL-HSFIQEGKEE-EDANS as substrate measured after 2 hrs by FRET assay
Plasmepsin IX = molecular target: T1, Plasmepsin IX (Plasmodium falciparum, UniProt Q8ILG2); test: Inhibition of Plasmodium falciparum 3D7 HA-glms-tagged PMIX using DABCYL-HSFIQEGKEE-EDANS as substrate measured after 2 hrs by FRET assay
T1 sequence (Q8ILG2 whole entry): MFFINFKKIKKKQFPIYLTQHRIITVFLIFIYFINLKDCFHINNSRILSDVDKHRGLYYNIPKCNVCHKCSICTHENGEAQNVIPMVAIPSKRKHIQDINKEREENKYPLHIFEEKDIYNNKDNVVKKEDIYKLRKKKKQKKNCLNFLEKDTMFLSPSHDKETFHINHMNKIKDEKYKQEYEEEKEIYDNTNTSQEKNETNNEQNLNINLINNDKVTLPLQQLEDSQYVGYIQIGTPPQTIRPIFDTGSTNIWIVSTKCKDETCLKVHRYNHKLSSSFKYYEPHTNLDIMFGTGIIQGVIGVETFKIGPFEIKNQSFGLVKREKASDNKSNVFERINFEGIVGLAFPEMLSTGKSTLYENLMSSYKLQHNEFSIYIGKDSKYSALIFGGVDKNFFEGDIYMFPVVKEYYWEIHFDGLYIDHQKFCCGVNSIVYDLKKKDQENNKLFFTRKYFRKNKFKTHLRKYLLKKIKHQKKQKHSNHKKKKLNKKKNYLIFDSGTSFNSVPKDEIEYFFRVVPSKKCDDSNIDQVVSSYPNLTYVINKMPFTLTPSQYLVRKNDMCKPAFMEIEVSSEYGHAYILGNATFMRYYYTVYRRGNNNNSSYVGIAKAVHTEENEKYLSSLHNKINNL

[2] = Lipophilicity, log D of compound at pH 7.4; type: physicochemical; settings: buffer
[3] = Kinetic solubility of the compound; type: physicochemical; settings: read-out: Kinetic_solubility
[4] = Mean residence time in rat; type: ADME; settings: in vivo
[5] = Plasma clearance in rat; type: ADME
[6] = Unbound clearance in rat; type: ADME; settings: in vivo
[7] = Volume of distribution in rat; type: ADME; settings: in vivo
[8] = Unbound volume of distribution in rat; type: ADME; settings: in vivo
[9] = Oral bioavailability in rat; type: ADME, organism-based; settings: in vivo
[10] = Mean residence time in mouse; type: ADME, organism-based; settings: in vivo
[11] = Plasma clearance in mouse; type: ADME, organism-based
[12] = Unbound plasma clearance in mouse; type: ADME, organism-based; settings: in vivo
[13] = Unbound volume of distribution in mouse; type: ADME, organism-based; settings: in vivo
Plasmodium falciparum [14] = test: Antimalarial activity Plasmodium falciparum Dd2 assessed as EC90 fold pressure measured up to 62 days by microscopy; type: functional; settings: Dd2, 1488 h, time <= 62 day
Plasmodium falciparum [15] = test: Antimalarial activity Plasmodium falciparum Dd2 assessed as minimum inoculum for resistance measured up to 62 days by microscopy; type: functional; settings: time <= 62 day
[16] = Apparent permeability across apical to basolateral side in MDCK cells; type: ADME, cell-based, Canis lupus familiaris; settings: dog
[17] = Protein binding in rat plasma; type: ADME, cell-free; settings: read-out: PPB (converted)
[18] = Volume of distribution in mouse; type: ADME, organism-based; settings: in vivo
[19] = Oral bioavailability in mouse; type: ADME, organism-based; settings: in vivo
[20] = Protein binding in mouse plasma; type: ADME, cell-free; settings: read-out: PPB (converted)

Plasmepsin X, sequence (Q8IAS0 whole entry): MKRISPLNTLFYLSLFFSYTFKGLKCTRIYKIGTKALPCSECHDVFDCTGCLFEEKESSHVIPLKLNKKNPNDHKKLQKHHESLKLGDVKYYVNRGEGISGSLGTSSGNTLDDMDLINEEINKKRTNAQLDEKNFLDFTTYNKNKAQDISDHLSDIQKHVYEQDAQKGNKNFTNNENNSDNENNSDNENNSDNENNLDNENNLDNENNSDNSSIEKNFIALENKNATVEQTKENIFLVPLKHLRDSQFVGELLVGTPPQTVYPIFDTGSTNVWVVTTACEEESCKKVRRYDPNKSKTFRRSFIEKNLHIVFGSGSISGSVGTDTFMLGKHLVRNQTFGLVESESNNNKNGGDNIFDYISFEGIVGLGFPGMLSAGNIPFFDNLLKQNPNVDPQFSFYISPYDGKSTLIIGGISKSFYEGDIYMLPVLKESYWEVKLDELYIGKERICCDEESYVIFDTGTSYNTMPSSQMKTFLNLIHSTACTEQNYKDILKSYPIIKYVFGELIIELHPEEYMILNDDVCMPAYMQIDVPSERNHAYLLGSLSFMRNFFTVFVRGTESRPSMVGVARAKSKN

SMILES: CCC1(CC)CC(=O)N([C@@H]2CCOc3ccc(C(=O)N[C@H]4CC(C)(C)Oc5ccccc54)cc32)C(=N)N1
- EC50 (Plasmodium falciparum [1]): 0.4 nM
- IC50 (Plasmepsin X): 0.03 nM
- IC50 (Plasmepsin IX): 1.4 nM
- logD [2]: 2.5
- solubility kinetic [3]: 0.1 µM (≈ 0.0505 µg/mL)
- MRT [4]: 3.7 h
- clearance [5]: 2.52 L/h/kg
- CL free [6]: 61.32 L/h/kg
- Vd [7]: 9.4 L/kg
- Vdu [8]: 222 L/kg
- bioavailability [9]: 8%
- MRT [10]: 2.5 h
- clearance [11]: 2.52 L/h/kg
- CL free [12]: 46.4 L/h/kg
- Vdu [13]: 120 L/kg
- EC90 (Plasmodium falciparum [14]): 1.5 nM
- Activity (Plasmodium falciparum [15]): >9

SMILES: CC(C)[C@]1(C)CC(=O)N(Cc2cccc(C(=O)N3Cc4ccccc4C3)c2)C(=N)N1
- EC50 (Plasmodium falciparum [1]): > 1000 nM

SMILES: CC(C)[C@]1(C)CC(=O)N(Cc2cccc(C(=O)NC3CCc4ccccc43)c2)C(=N)N1 (mixture of isomers)
- EC50 (Plasmodium falciparum [1]): 66 nM

SMILES: C[C@H](NC(=O)c1cc(F)cc(CN2C(=N)N[C@@](CC3CC3)(c3ccccc3)CC2=O)c1)c1ccccc1
- EC50 (Plasmodium falciparum [1]): 22 nM

SMILES: CC(C)[C@]1(C)CC(=O)N(Cc2cccc(C(=O)NC3CCCc4ccccc43)c2)C(=N)N1 (mixture of isomers)
- EC50 (Plasmodium falciparum [1]): 68 nM

SMILES: CCC1(CC)CC(=O)N(Cc2cc(F)cc(C(=O)N[C@@H](C)c3ccccc3)c2)C(=N)N1
- EC50 (Plasmodium falciparum [1]): 93 nM

SMILES: C[C@H](NC(=O)c1cc(F)cc(CN2C(=N)NC(c3ccccc3)CC2=O)c1)c1ccccc1 (single isomer, unassigned)
- EC50 (Plasmodium falciparum [1]): > 1000 nM

SMILES: CC(C)[C@]1(C)CC(=O)N(Cc2cccc(C(=O)N[C@H]3CCOc4ccccc43)c2)C(=N)N1
- EC50 (Plasmodium falciparum [1]): 1.5 nM

SMILES: CCC1(CC)CC(=O)N(Cc2cccc(C(=O)N[C@H]3CCOc4ccccc43)n2)C(=N)N1
- EC50 (Plasmodium falciparum [1]): 110 nM

SMILES: CCC[C@H](c1cccc(C(=O)N[C@@H](C)c2ccccc2)c1)N1C(=N)NC(CC)(CC)CC1=O
- EC50 (Plasmodium falciparum [1]): 0.8 nM

SMILES: CCC1(CC)CC(=O)N(Cc2cccc(C(=O)N[C@@H](C)c3ccccc3)c2)C(=N)N1
- EC50 (Plasmodium falciparum [1]): 114 nM

SMILES: CCC1(CC)NC(=N)N(Cc2cc(F)cc(C(=O)N[C@@H](C)c3ccccc3)c2)C1=O
- EC50 (Plasmodium falciparum [1]): > 1000 nM

SMILES: CCC1(CC)CC(=O)N([C@H](c2cccnc2)c2cccc(C(=O)N[C@@H](C)c3ccccc3)c2)C(=N)N1
- EC50 (Plasmodium falciparum [1]): 1 nM

SMILES: CCC1(CC)CC(=O)N(C(c2cccc(C(=O)N[C@@H](C)c3ccccc3)c2)C2CC2)C(=N)N1 (mixture of isomers)
- EC50 (Plasmodium falciparum [1]): 160 nM

SMILES: CC(C)[C@]1(C)CC(=O)N(C(c2ccccc2)c2cccc(C(=O)N[C@@H](C)c3ccccc3)c2)C(=N)N1 (stereo not given in full)
- EC50 (Plasmodium falciparum [1]): 6.2 nM
- EC90 (Plasmodium falciparum [14]): 80 nM
- Activity (Plasmodium falciparum [15]): >9

SMILES: C[C@H](NC(=O)c1cc(F)cc(CN2C(=N)N[C@]3(C)CCCC[C@]3(C)C2=O)c1)c1ccccc1
- EC50 (Plasmodium falciparum [1]): > 1000 nM

SMILES: CCC1(CC)CC(=O)N(Cc2cncc(C(=O)N[C@H]3CCOc4ccccc43)c2)C(=N)N1
- EC50 (Plasmodium falciparum [1]): 10 nM

SMILES: CC(C)[C@]1(C)CC(=O)N(Cc2cccc(C(=O)NC3CCNc4ccccc43)c2)C(=N)N1 (mixture of isomers)
- EC50 (Plasmodium falciparum [1]): 64 nM

SMILES: CCC1(CC)CC(=O)N(Cc2ccnc(C(=O)N[C@H]3CCOc4ccccc43)c2)C(=N)N1
- EC50 (Plasmodium falciparum [1]): 17 nM

SMILES: CCC[C@H](c1cccc(C(=O)N[C@H]2CCOc3ccccc32)c1)N1C(=N)NC(CC)(CC)CC1=O
- EC50 (Plasmodium falciparum [1]): 0.4 nM
- IC50 (Plasmepsin X): 0.06 nM
- IC50 (Plasmepsin IX): 4.5 nM
- logD [2]: 2.9
- solubility kinetic [3]: 0.2 µM (≈ 0.0953 µg/mL)
- Papp A→B [16]: 163 nm/s
- MRT [4]: 1.1 h
- clearance [5]: 6.18 L/h/kg
- CL free [6]: 338.9 L/h/kg
- Vd [7]: 6.7 L/kg
- Vdu [8]: 340 L/kg
- bioavailability [9]: 6%
- fraction unbound [17]: 0.02
- MRT [10]: 1.1 h
- clearance [11]: 2.16 L/h/kg
- CL free [12]: 188.9 L/h/kg
- Vd [18]: 2.3 L/kg
- Vdu [13]: 204 L/kg
- bioavailability [19]: 14%
- fraction unbound [20]: 0.011

SMILES: CCC1(CC)CC(=O)N([C@@H](c2ccccc2)c2cccc(C(=O)N[C@@H](C)c3ccccc3)c2)C(=N)N1
- EC50 (Plasmodium falciparum [1]): 830 nM

SMILES: CCC1(CC)CC(=O)N(Cc2cc(C(=O)N[C@H]3CCOc4ccccc43)cnn2)C(=N)N1
- EC50 (Plasmodium falciparum [1]): 169 nM

SMILES: CCC1(CC)CC(=O)N([C@H](CCN2CCCC2)c2cccc(C(=O)N[C@@H](C)c3ccccc3)c2)C(=N)N1
- EC50 (Plasmodium falciparum [1]): 8.7 nM
